# Laboratory results published in patent publication EP4663632A1, “COMPOUNDS USEFUL FOR THE MODULATION OF THE ACTIVITY OF STING” (Sulis Therapeutics ApS, priority 2024, dated 2025).
# Columns and labels:
# [1] = target: C-terminal domain (CTD) of human STING (Homo sapiens, UniProt Q86WV6); test: STING binding FP assay III; parameters: recombinant human STING protein (155-379); conditions: 10 nM STING (FP assay III according to the text); read-out: STING binding FP assay II, IC50
# Experimental: The interaction between molecules and the C-terminal domain (CTD) of human STING was evaluated using a competition binding assay. In this assay, recombinant human STING protein (155-379) and a STING binding fluorescent probe were employed. Upon binding of the probe to STING, the rotation of the fluorescent probe is slowed due to the larger molecular size of the protein-bound complex. As a result, emitted light retains its plane of polarization, leading to an increase in fluorescence polarization. Molecules competing for the probe binding site displace the probe, which leads to rapid randomization of the polarization plane of the emitted light and a subsequent decrease in measured fluorescence polarization signal. Change in polarization was measured, allowing a comparative evaluation of the binding affinities of different compounds to the target protein.
# The assay was performed in 96-well plates (ThermoFisher, cat.# 237108) containing 100µl : 10 µL test compound in 10% DMSO and buffer A (150 mM NaCl, 50 mM HEPES pH 7.5, 1 mM DTT) + 90 µL prepared master mix solution of: 4 nM fluorescein-labelled STING ligand (Probe 1; synthesis described above) in buffer A + 0.055% Tween-20 (v/v) and 35 nM STING in buffer A. Post mixing, plates were agitated at 600rpm and incubated for 20 min at room temperature. Subsequent measurements of the fluorescence polarization signal were made on a BioTek Synergy-H1 plate reader, using a polarization filter; Exc: 485/20 nm, Em: […]) with a gain-setting of 75. IC50 values were determined using a standard non-linear regression four-parameter curve fit in Graphpad Prism.
# The procedure for STING binding FP assay III is the same as described for STING binding FP assay I, except for a lower STING concentration. In STING binding FP assay III, a concentration of 10 nM STING in buffer A was used.
# STING = STING (Homo sapiens, UniProt Q86WV6); test: Western Blot analysis of inhibition of STING activation in HFF-1 cells; format: cell-based; parameters: host or cells: HFF-1 human foreskin fibroblasts; conditions: for STING, TBK1 and IRF1 phosphorylation: 2 h or 5 h; for phosphorylation of STING, IRF1 or TBK1 (agonism): compound as single agent, no activation
# STING, sequence (Q86WV6 whole entry, the tested form may be a part): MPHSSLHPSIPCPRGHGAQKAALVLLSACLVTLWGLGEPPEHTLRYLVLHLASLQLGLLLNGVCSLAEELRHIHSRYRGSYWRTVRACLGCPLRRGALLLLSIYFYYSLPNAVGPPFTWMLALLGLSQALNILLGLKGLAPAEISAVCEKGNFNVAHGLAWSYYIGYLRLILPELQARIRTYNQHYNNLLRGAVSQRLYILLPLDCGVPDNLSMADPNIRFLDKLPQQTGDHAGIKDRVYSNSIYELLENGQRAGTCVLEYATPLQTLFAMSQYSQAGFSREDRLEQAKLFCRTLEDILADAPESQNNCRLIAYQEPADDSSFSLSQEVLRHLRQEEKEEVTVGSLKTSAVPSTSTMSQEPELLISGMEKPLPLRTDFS
# Experimental: To assess whether S1 STING ligands inhibit STING activation, primary human skin fibroblasts (Figure 5) or HFF-1 cells (Figure 6) were treated with various compounds which comprise only an S1 ligand domain and a Linker domain before undergoing Western Blot analysis as described below.
# The cells were lysed and analysed on WB. […] The WB membrane was probed for p-STING, STING, p-IRF3, p-TBK1, and Vinculin.
# [2] = 5 µM for 15 min prior to 300 nM diABZI
# [3] = 5 µM for 15 min prior to 8 µg/mL cGAMP
# C-terminal domain (CTD) of human STING, sequence (Q86WV6 155-379): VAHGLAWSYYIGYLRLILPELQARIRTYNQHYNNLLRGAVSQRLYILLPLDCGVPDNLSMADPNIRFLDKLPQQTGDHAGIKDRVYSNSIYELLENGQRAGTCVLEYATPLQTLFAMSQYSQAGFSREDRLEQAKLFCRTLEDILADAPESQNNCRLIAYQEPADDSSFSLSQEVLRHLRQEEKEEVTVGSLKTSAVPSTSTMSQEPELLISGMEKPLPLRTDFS
Compound,IC50 [1],"STING, TBK1 and IRF1 phosphorylation (STING; [2])","STING, TBK1 and IRF1 phosphorylation (STING; [3])","phosphorylation of STING, IRF1 or TBK1 (agonism) (STING)"
"CCn1nc(C)cc1C(=O)Nc1nc2cc(C(N)=O)ccc2n1CCC(CCn1c(NC(=O)c2cc(C)nn2CC)nc2cc(C(N)=O)ccc21)OCC(=O)NCCOCCOCCOCC(=O)N[C@H](C(=O)N1C[C@H](O)C[C@H]1C(=O)NCc1ccc(-c2scnc2C)cc1)C(C)(C)C [Example 4, N-[(S)-1-{[(2S,4R)-4-Hydroxy-2-({[p-(4-methyl-1,3-thiazol-5-yl)phenyl]methyl}carbamoyl)-1-pyrrolidinyl]carbonyl}-2,2-dimethylpropyl]11-[({3-[5-carbamoyl-2-(1-ethyl-3-methyl-5-pyrazolylcarbonylamino)-1H-1,3-benzimidazol-1-yl]-1-{2-[5-carbamoyl-2-(1-ethyl-3-methyl-5-pyrazolylcarbonylamino)-1H-1,3-benzimidazol-1-yl]ethyl}propoxy}methyl)carbonylamino]-3,6,9-trioxaundecanamide]",2.2 nM,–,–,–
CCn1nc(C)cc1C(=O)N=c1n(C)c2cc(C(N)=O)ccc2n1CCC(CCn1c(=NC(=O)c2cc(C)nn2CC)n(C)c2cc(C(N)=O)ccc21)OCC(=O)NCCOCCOCCOCCOCCOCC(=O)N[C@H]1C[C@@H](C(=O)N[C@@H]2CCCc3ccccc32)N(C(=O)[C@@H](NC(=O)[C@H](C)NC)C2CCCCC2)C1 (some centres unmarked) [Example 13],4.1 nM,–,–,–
CCn1nc(C)cc1C(=O)N=c1n(C)c2cc(C(N)=O)ccc2n1CCC(CCn1c(=NC(=O)c2cc(C)nn2CC)n(C)c2cc(C(N)=O)ccc21)OCC(=O)NCCOCCOCCOCCOCCC(=O)NCCOCCOCCOCC(=O)N[C@H]1C[C@@H](C(=O)N[C@@H]2CCCc3ccccc32)N(C(=O)[C@@H](NC(=O)[C@H](C)NC)C2CCCCC2)C1 (some centres unmarked) [Example 18],3.5 nM,–,–,–
"CCn1nc(C)cc1C(=O)N=c1n(C)c2cc(C(N)=O)ccc2n1CCC(CCn1c(=NC(=O)c2cc(C)nn2CC)n(C)c2cc(C(N)=O)ccc21)OCC(=O)N1CCC[C@H]1c1ccccc1 (stereo partly drawn) [Example A25, 1-(3-{2-[(S)-2-Phenyl-1-pyrrolidinyl]-2-oxoethoxy}-5-{5-carbamoyl-2-[(1-ethyl-3-methyl-5-pyrazolyl)carbonylimino]-3-methyl-2,3-dihydro-1H-1,3-benzimidazol-1-yl}pentyl)-2-[(1-ethyl-3-methyl-5-pyrazolyl)carbonylimino]-3-methyl-2,3-dihydro-1H-1,3-benzimidazole-5-carboxamide]",–,lower compared to cells treated with diABZI c3 alone,lower compared to cells treated with cGAMP alone (with the exception of TBK1 in lane A25),"no phosphorylation of STING, IRF1 or TBK1 was observed"
"CCn1nc(C)cc1C(=O)N=c1n(C)c2cc(C(N)=O)ccc2n1CCC(CCn1c(=NC(=O)c2cc(C)nn2CC)n(C)c2cc(C(N)=O)ccc21)OCC(=O)N1CCC[C@H]1C(=O)N1CCc2cc(OC)ccc2C1 (stereo partly drawn) [Example A26, 1-[3-(2-{(S)-2-[(6-Methoxy-1,2,3,4-tetrahydro-2-isoquinolyl)carbonyl]-1-pyrrolidinyl}-2-oxoethoxy)-5-{5-carbamoyl-2-[(1-ethyl-3-methyl-5-pyrazolyl)carbonylimino]-3-methyl-2,3-dihydro-1H-1,3-benzimidazol-1-yl}pentyl]-2-[(1-ethyl-3-methyl-5-pyrazolyl)carbonylimino]-3-methyl-2,3-dihydro-1H-1,3-benzimidazole-5-carboxamide]",–,lower compared to cells treated with diABZI c3 alone,lower compared to cells treated with cGAMP alone,"no phosphorylation of STING, IRF1 or TBK1 was observed"
"N-(2-{1-[4-(N-2,6-Dioxo-3-piperidylcarbamoyl)-3-chlorophenyl]-4-piperidyl}ethyl)15-{[(3-{5-carbamoyl-2-[(1-ethyl-3-methyl-5-pyrazolyl)carbonylimino]-3-methyl-2,3-dihydro-1H-1 ,3-benzimidazol-1-yl}-1-(2-{5-carbamoyl-2-[(1-ethyl-3-methyl-5-pyrazolyl)carbonylimino]-3-methyl-2,3-dihydro-1H-1 ,3-benzimidazol-1-yl}ethyl)propoxy)methyl]carbonylamino}-4,7,10,13-tetraoxapentadecanamide [Example 37]",3.7 nM,–,–,–

# Second part, led by results:
IC50 [1],Compound,"STING, TBK1 and IRF1 phosphorylation (STING; [2])","STING, TBK1 and IRF1 phosphorylation (STING; [3])","phosphorylation of STING, IRF1 or TBK1 (agonism) (STING)"
3.7 nM,"CCn1nc(C)cc1C(=O)N=c1n(C)c2cc(C(N)=O)ccc2n1CCC(CCn1c(=NC(=O)c2cc(C)nn2CC)n(C)c2cc(C(N)=O)ccc21)OCC(=O)NCCOCCOCCOCCOCCC(=O)NCCOCCNc1ccc(C(=O)NC2CCC(=O)NC2=O)c(OC)c1 (centres unmarked) [Example 34, N-(2-{2-[4-(N-2,6-Dioxo-3-piperidylcarbamoyl)-3-anisidino]ethoxy}ethyl)15-{[(3-{5-carbamoyl-2-[(1-ethyl-3-methyl-5-pyrazolyl)carbonylimino]-3-methyl-2,3-dihydro-1H-1 ,3-benzimidazol-1-yl}-1-(2-{5-carbamoyl-2-[(1-ethyl-3-methyl-5-pyrazolyl)carbonylimino]-3-methyl-2,3-dihydro-1H-1 ,3-benzimidazol-1-yl}ethyl)propoxy)methyl]carbonylamino}-4,7,10,13-tetraoxapentadecanamide]",–,–,–
10.3 nM,"CCn1nc(C)cc1C(=O)N=c1n(C)c2cc(C(N)=O)ccc2n1CCC(CCn1c(=NC(=O)c2cc(C)nn2CC)n(C)c2cc(C(N)=O)ccc21)OCC(=O)NCCOCCOCCOCCOCCC(=O)NCCC1CCN(c2ccc(C(=O)NC3CCC(=O)NC3=O)c(OC)c2)CC1 (centres unmarked) [Example 35, N-(2-{1-[4-(N-2,6-Dioxo-3-piperidylcarbamoyl)-3-methoxyphenyl]-4-piperidyl}ethyl)15-{[(3-{5-carbamoyl-2-[(1-ethyl-3-methyl-5-pyrazolyl)carbonylimino]-3-methyl-2,3-dihydro-1H-1 ,3-benzimidazol-1-yl}-1-(2-{5-carbamoyl-2-[(1-ethyl-3-methyl-5-pyrazolyl)carbonylimino]-3-methyl-2,3-dihydro-1H-1 ,3-benzimidazol-1-yl}ethyl)propoxy)methyl]carbonylamino}-4,7,10,13-tetraoxapentadecanamide]",–,–,–
10 nM,"CCn1nc(C)cc1C(=O)N=c1n(C)c2cc(C(N)=O)ccc2n1CCC(CCn1c(=NC(=O)c2cc(C)nn2CC)n(C)c2cc(C(N)=O)ccc21)OCC(=O)NCCOCCOCCOCCOCCC(=O)N1CCN(C2CCN(c3ccc(C(=O)NC4CCC(=O)NC4=O)c(OC)c3)CC2)CC1 (centres unmarked) [Example 36, N-[15-(4-{1-[4-(N-2,6-Dioxo-3-piperidylcarbamoyl)-3-methoxyphenyl]-4-piperidyl}-1-piperazinyl)-15-oxo-3,6,9,12-tetraoxapentadecyl](3-{5-carbamoyl-2-[(1-ethyl-3-methyl-5-pyrazolyl)carbonylimino]-3-methyl-2,3-dihydro-1H-1 ,3-benzimidazol-1-yl}-1-(2-{5-carbamoyl-2-[(1-ethyl-3-methyl-5-pyrazolyl)carbonylimino]-3-methyl-2,3-dihydro-1 H-1 ,3-benzimidazol-1-yl}ethyl)propoxy)acetamide]",–,–,–
2.6 nM,"CCn1nc(C)cc1C(=O)N=c1n(C)c2cc(C(N)=O)ccc2n1CCC(CCn1c(=NC(=O)c2cc(C)nn2CC)n(C)c2cc(C(N)=O)ccc21)OCC(=O)NCCOCCOCCOCCOCCC(=O)NCCC1CCN(c2ccc(C(=O)NC3CCC(=O)NC3=O)c(F)c2)CC1 (centres unmarked) [Example 38, N-(2-{1-[4-(N-2,6-Dioxo-3-piperidylcarbamoyl)-3-fluorophenyl]-4-piperidyl}ethyl)15-{[(3-{5-carbamoyl-2-[(1-ethyl-3-methyl-5-pyrazolyl)carbonylimino]-3-methyl-2,3-dihydro-1 H-1 ,3-benzimidazol-1-yl}-1-(2-{5-carbamoyl-2-[(1-ethyl-3-methyl-5-pyrazolyl)carbonylimino]-3-methyl-2,3-dihydro-1 H-1 ,3-benzimidazol-1-yl}ethyl)propoxy)methyl]carbonylamino}-4,7,10,13-tetraoxapentadecanamide]",–,–,–
